Measured values published in ChEMBL document CHEMBL4304758, “Development of Peptide-Based Sirtuin Defatty-Acylase Inhibitors Identified by the Fluorescence Probe, SFP3, That Can Efficiently Measure Defatty-Acylase Activity of Sirtuin” (J Med Chem, 2019).
Where a name gives a salt, the structure may show the parent alone. Residues, ends and D or L forms follow the SMILES beside them. *: point of attachment. Tfa = O=C(C(F)(F)F)*

Legend:
[1] = molecular target: T1, NAD-dependent protein deacetylase sirtuin-3, mitochondrial (Homo sapiens, UniProt Q9NTG7); experiment: Inhibition of recombinant human SIRT3 (118 to 399 residues) defatty-acylase activity expressed in Escherichia coli using SFP3 as substrate measured at 5 mins interval for 60 mins in presence of NAD+ by fluorescence assay
T1 sequence (Q9NTG7 whole entry): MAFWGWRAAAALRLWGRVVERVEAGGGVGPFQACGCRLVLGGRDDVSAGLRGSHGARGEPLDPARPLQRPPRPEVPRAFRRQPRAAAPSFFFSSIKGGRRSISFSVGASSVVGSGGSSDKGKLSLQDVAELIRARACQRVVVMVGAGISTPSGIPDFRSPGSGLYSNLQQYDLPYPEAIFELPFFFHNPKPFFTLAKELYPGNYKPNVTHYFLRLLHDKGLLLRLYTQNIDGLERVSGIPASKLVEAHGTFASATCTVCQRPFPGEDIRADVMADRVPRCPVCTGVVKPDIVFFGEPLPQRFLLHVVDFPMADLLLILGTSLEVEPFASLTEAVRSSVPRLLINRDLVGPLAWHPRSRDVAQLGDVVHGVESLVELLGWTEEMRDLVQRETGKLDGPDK

[2] = molecular target: T2, NAD-dependent protein deacetylase sirtuin-2 (Homo sapiens, UniProt Q8IXJ6); experiment: Inhibition of recombinant human SIRT2 demyristoylase activity using p53(Myr)-AMC as substrate measured after 3 hrs in presence of NAD+ and trypsin by fluorescence assay
T2 sequence (Q8IXJ6 whole entry): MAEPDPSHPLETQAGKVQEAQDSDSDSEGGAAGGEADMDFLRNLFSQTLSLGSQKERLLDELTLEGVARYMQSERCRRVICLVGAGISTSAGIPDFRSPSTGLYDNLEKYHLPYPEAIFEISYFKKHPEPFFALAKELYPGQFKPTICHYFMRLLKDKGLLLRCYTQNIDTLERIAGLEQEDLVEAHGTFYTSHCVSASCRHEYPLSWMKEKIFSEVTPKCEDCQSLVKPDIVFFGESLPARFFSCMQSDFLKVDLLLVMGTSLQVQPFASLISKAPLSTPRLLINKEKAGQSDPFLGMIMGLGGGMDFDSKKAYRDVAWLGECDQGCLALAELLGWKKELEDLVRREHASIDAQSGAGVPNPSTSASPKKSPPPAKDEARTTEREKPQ

[3] = molecular target: T2, NAD-dependent protein deacetylase sirtuin-2; experiment: Inhibition of recombinant human SIRT2 deacylation activity using Fluor de Lys Sirt2 as substrate measured at 5 mins interval for 30 mins in presence of NAD+ by fluorescence assay
[4] = molecular target: T2, NAD-dependent protein deacetylase sirtuin-2; experiment: Inhibition of recombinant human SIRT2 deacylation activity expressed in Escherichia coli Rosetta2 using Fluor-de-Lys-SIRT2 deacetylase substrate measured after 2 hrs by fluorescence assay
[5] = molecular target: T2, NAD-dependent protein deacetylase sirtuin-2; experiment: Inhibition of recombinant human SIRT2 defatty-acylase activity using SFP3 as substrate measured at 5 mins interval for 60 mins in presence of NAD+ by fluorescence assay
[6] = molecular target: T3, NAD-dependent protein deacetylase sirtuin-1 (Homo sapiens, UniProt Q96EB6); experiment: Inhibition of recombinant human C-terminal His6-tagged SIRT1 (Met1 to Ser747 residues) defatty-acylase activity expressed in Escherichia coli using SFP3 as substrate measured at 5 mins interval for 60 mins in presence of NAD+ by fluorescence assay
T3 sequence (Q96EB6 whole entry): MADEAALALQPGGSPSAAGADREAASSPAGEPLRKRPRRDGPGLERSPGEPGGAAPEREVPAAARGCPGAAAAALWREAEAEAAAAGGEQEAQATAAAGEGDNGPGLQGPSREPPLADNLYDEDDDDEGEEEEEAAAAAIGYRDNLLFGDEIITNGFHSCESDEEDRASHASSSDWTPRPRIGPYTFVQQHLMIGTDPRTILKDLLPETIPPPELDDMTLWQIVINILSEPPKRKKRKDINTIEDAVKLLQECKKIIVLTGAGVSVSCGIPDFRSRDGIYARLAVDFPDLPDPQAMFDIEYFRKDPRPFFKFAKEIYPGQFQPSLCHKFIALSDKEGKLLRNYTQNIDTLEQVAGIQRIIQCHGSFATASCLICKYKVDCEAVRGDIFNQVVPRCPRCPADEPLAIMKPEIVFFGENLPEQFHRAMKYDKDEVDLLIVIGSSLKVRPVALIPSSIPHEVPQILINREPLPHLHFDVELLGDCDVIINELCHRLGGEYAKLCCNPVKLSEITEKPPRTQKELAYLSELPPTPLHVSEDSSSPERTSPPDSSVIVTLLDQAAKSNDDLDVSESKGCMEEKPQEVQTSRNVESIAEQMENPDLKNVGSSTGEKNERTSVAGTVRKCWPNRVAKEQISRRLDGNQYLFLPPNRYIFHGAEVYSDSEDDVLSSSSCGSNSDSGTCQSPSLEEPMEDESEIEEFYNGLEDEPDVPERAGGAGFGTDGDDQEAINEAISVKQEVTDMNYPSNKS

## CC[C@H](C)[C@H](NC(=O)[C@H](CCCNC(=N)N)NC(C)=O)C(=O)N[C@@H](CCCCNC(=O)C(F)(F)F)C(=O)N[C@@H](CCCNC(=N)N)C(=O)N[C@@H](Cc1ccc(O)cc1)C(N)=O (Ac-RIK(Tfa)RY-NH2)
[1]
  IC50: 0.54 µM
[2]
  IC50: 1.1 µM
[3]
  IC50: 0.067 µM
[4]
  IC50: 0.031 µM
[5]
  IC50: 0.32 µM
[6]
  IC50: > 2 µM
